Results published in patent US11542316B2, “S-Arrestin peptides and therapeutic uses thereof” (APITOPE INTERNATIONAL NV, priority 2017, dated 2023).
Entries after “also recorded” stand apart in the source; their conditions may differ. Ends that are not written are not given here.

What follows are substances tested against T1, MHC II molecules present on dendritic cells (DC) (Homo sapiens, UniProt P01903+P01911, A100K/A102G/A103R/F55Y/I96L/K41T/P40S/Q125H/Q178H/Q39Y/R42S/S66N/T106N/T262R/W38E/Y61H) (assay: In vivo presentation experiment, DR3tg mice). Conditions: 100 μg peptide s.c., CD11c+ cells harvested after 2 hours, co-culture 48 hours.
T1 construct: from tissue; host or cells: CD11c+ dendritic cells from spleens of DR3tg mice (genomic HLA-DRA and DRB1*0301 transgenes, no mouse MHC class II)
T1 sequence (P01903 26-254): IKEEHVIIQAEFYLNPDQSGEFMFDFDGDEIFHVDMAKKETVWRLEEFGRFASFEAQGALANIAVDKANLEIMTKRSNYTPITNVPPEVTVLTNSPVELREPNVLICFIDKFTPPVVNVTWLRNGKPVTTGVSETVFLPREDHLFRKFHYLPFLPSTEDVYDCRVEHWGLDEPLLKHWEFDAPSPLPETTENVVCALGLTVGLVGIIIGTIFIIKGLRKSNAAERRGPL
T1 sequence (P01911 30-266 with the stated changes): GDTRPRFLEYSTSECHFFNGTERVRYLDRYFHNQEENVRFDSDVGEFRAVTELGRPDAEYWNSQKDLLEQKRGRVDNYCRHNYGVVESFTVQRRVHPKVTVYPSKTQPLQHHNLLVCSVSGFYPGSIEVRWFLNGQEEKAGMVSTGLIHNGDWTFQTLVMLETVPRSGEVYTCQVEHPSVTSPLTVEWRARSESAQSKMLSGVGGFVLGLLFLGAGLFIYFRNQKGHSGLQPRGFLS
From the text: FIG. 14: In vivo presentation protocol. Mice are immunized with peptide/CFA and a T cell line is established. For this, ten days after immunization the LN and spleens are harvested and cultured with different concentrations of peptide; 2×10^6 cells/ml APC+1×10^6 cells/ml CD4^+ cells per well. At day 7 the cells are re-stimulated with fresh APC and the same concentrations of peptide. After 14 to 21 days, CD4^+ cells are isolated from these cultures by magnetic bead isolation. These CD4^+ cells are co-cultured with CD11c^+ (dendritic) cells isolated by magnetic bead isolation from spleens of mice s.c. injected with peptide 2 hours before. Control mice receive a s.c. injection of PBS. After 48 hours, supernatant is collected and cytokine response (IFN-γ) is measured. LN, lymph nodes; APC, Antigen presenting cell; s.c. subcutaneous.
FIG. 15: In vivo presentation of HIP-115 nested peptides in DR3 mice. DR3 mice were immunized with HIP-115/CFA and a T cell line was established. For this, ten days after immunization the LN and spleens were harvested and cultured with different concentrations of peptide (0.1-1-2.5 and 5 μg/ml); 2×10^6 cells/ml APC+1×10^6 cells/ml CD4^+ cells per well. At day 7 the cells were re-stimulated with fresh APC and the same concentrations of peptide. After 14 days, CD4^+ cells were isolated from these cultures by magnetic bead isolation. These CD4^+ cells were co-cultured with CD11c (dendritic) cells isolated by magnetic bead isolation from spleens of DR3 mice s.c. injected with peptides HIP-115NE3, HIP-115NE3-KKK or PBS 2 hours before. After 48 hours, supernatant was collected and IFN-γ production was measured by ELISA. Data are presented as the mean IFN-γ concentration±SEM (One-way ANOVA with Dunn's multiple comparison, * p<0.05, ** p<0.01). LN, lymph nodes; APC, Antigen presenting cell; s.c. subcutaneous.
FIG. 16: In vivo presentation of HIP-24 nested peptides in DR3 mice. DR3 mice were immunized with HIP-241125+HIP-24DG/CFA and a T cell line was established. For this, ten days after immunization the LN and spleens were harvested and cultured with different concentrations of peptide (0.3-1.2-3 and 6 μg/ml); 2×10^6 cells/ml APC+1×10^6 cells/ml CD4^+ cells per well. At day 7 the cells were re-stimulated with fresh APC and the same concentrations of peptide. After 14 days, CD4^+ cells were isolated from these cultures by magnetic bead isolation. […] After 48 hours, supernatant was collected and IFN-γ production was measured by ELISA. […]
FIG. 18: In vivo presentation of HIP-17GN nested peptides in DR3 mice. […] After 48 hours, supernatant was collected and IFN-γ production was measured by ELISA. […]

Substance	picked up and presented by MHC II on dendritic cells to peptide-specific T cells (IFN-γ production)
KKKLTFRRDLYFSRVQVYKKK-NH2 [HIP-17J-KKK]	presented by DC to T cells; also recorded: A certain degree of activation
KKKVIFKKISRDKSVTIYLGKKK-NH2 [HIP-115NE3-KKK]	bound to the MHC II on DC in situ and presented to peptide-specific T cells
LPLLANNRERRGIA-NH2 [HIP-24HM3, LPLLANNRERRGIA]	presented by DC to T cells
VIFKKISRDKSVTIYLG-NH2 [HIP-115NE3, VIFKKISRDKSVTIYLG]	not able to cause this activation
